From PubChem BioAssay (NCI)
Where “and” joins values, the source holds several entries; their conditions need not be identical. Equal values may be shown once.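 Exposure lasted 48 hours, with cells grown in 96-well plates and compounds tested at five concentrations. GI50 = concentration required for 50% inhibition of growth. The concentration for full growth arrest is given as TGI.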

system: MDA-MB-468 breast; test: NCI-60 cell line screen, 48 h

Row | Structure (SMILES) | GI50 | TGI
1 | CC(=O)c1nc2ccccc2n1CCN1CCN(C)CC1 | 1.91 µM | > 22.3 µM
2 | COc1cc(C(=O)/C=C/c2ccc(OCCCCCC[P+](c3ccccc3)(c3ccccc3)c3ccccc3)cc2)cc(OC)c1OC | 0.242 µM | 0.705 µM
3 | Nc1cc2c([nH]c[n+]2CC#CCCl)c(SCC#CCCl)n1 | 0.734 µM | 2.4 µM
4 | CCN1CCC(Oc2c(C#N)ncc3[nH]c4ncccc4c23)CC1 | 16 µM | 33.3 µM
5 | NS(=O)(=O)N(c1cc(C(F)(F)F)cc(C(F)(F)F)c1)C1CCN(Cc2ccc(F)cc2)CC1 | 1.86 µM | 4.76 µM
6 | N#Cc1c(-c2ccccc2)cc(-c2ccccc2)n(CC(=O)NO)c1=O | 3.48 µM | 14.5 µM
7 | O=C(CCl)Nc1ccc2c(c1)C(=O)c1ccccc1C2=O | 1.76 µM | 4.08 µM
8 | CCCC(c1nnnn1C1CCCCC1)N1CCN(C(=O)c2ccco2)CC1 (stereo unspecified) | > 100 µM | > 100 µM
9 | Cc1cc2c([nH]1)CSc1cc(S(=O)(=O)c3ccccc3)c(=O)[nH]c1-2 | 4.53 µM | > 26.1 µM
10 | c1ccc(-c2c(-c3ccccc3)[n+](Cc3ccc4ccccc4c3)c(-c3cccc4ccccc34)n2Cc2ccc3ccccc3c2)cc1 | 0.0473 µM | 0.281 µM
11 | O=S1CCN(Cc2ccc(-c3ccc4ncnc(Nc5ccc(OCc6cccc(F)c6)c(Cl)c5)c4c3)o2)CC1 | 0.00568 µM | 0.0466 µM
12 | COc1ccc(/C=C(\C#N)c2ccc(OC)cc2)cc1 | 1.61 µM | 35 µM
13 | Cc1cc(C)c(-c2cc(O)c(-c3c(C)cc(C)cc3C)cc2O)c(C)c1 | 1.96 µM | 8.47 µM
14 | CCCCNCC(O)c1cc2c(Cl)cc(Cl)cc2c2cc(C(F)(F)F)ccc12 (stereo unspecified) | 1.59 µM | 3.03 µM
15 | CCCCCCCCc1ccc(OCCOCC[N+](C)(C)CC)cc1 (tested in a mixture with another compound) | 0.43 µM | 2.32 µM
16 | O=C1Nc2ccccc2/C1=C/C(=N/c1nnc(-c2ccccc2)s1)c1ccccc1 | 2.71 µM | 8.1 µM
17 | COc1ccc(C2CC(c3cc(Cl)c(C)cc3O)=NN2c2ccc(S(N)(=O)=O)cc2)cc1OC (stereo unspecified) | 2.58 µM | 9.51 µM
18 | Cc1cc(-c2ncc(-c3cccnc3)cc2/C=C/c2ccccc2)cnc1-c1cccnc1 | > 20.5 µM | > 100 µM
19 | COCC(=O)Oc1cc(-c2ccc(C)cc2C)c(OC(=O)COC)c(-c2ccc(C)cc2C)c1 | 2.79 µM | 14.6 µM
20 | O=C(NCCCCNC(=O)OCc1ccc2c(Cl)cc(Cl)c(O)c2n1)OCc1ccc2c(Cl)cc(Cl)c(O)c2n1 | 0.532 µM | > 100 µM
21 | Cc1ccc(C(=O)Nc2ccc(CNCCN3CCNCC3)c(C(F)(F)F)c2)cc1C#Cc1cnc2cccnn12 | 1.65 µM | 3.3 µM
22 | O=C(CNc1nc(-c2cccc([N+](=O)[O-])c2)cs1)Nc1cccc([N+](=O)[O-])c1 | 1.95 µM | 4.92 µM

Row | Structure (SMILES) | GI50 | TGI
23 | COc1ccc(/C=C/c2nnc(/C=C/c3ccc(OC)c(OC)c3)o2)cc1OC | 2.88 µM | 27.5 µM
24 | Clc1ccc(CCC(Cn2ccnc2)Sc2c(Cl)cccc2Cl)cc1 (stereo unspecified) | 2.13 µM | 7.49 µM
25 | O=S1CCN(Cc2ccc(-c3ccc4ncnc(Nc5ccc(OCc6ccccc6)c(Cl)c5)c4c3)o2)CC1 | 0.0449 µM | 0.376 µM
26 | NCCOc1ncccc1/C=C1\c2ccccc2-c2ccc(F)cc21 | 1.33 µM | 2.84 µM
27 | COc1ccc2nc(NNC(=O)c3cnccn3)c3cccn3c2c1 | 0.287 µM | 1.96 µM
28 | CCN(Cc1ccncc1)c1ccc(CO)c(Cl)c1 | 0.0354 µM | 0.161 µM
29 | COc1cc(-c2n[nH]nc2-c2ccc3c(c2)OCCO3)cc(OC)c1OC | 0.0147 µM | 30.5 µM
30 | Cn1ncc2c(Sc3ccc(Cl)cc3)ncnc21 | 20.7 µM | > 100 µM
31 | CCCCCCCCc1cc[n+](CC(=O)c2ccc(Br)cc2)cc1 | 1.23 µM | 2.69 µM
32 | COC1=CC(c2ccc[nH]2)=N/C1=C\c1[nH]c(C)c(C(=O)CCCCC(=O)NCc2ccccc2)c1C | 2.6 µM | 7.85 µM
33 | COc1cc(-c2ccc3ncnc(NCc4ccccc4)c3c2)cnc1OC | 1.71 µM | 4.96 µM
34 | CC(C)(C)c1ccc(C(=O)Nc2sc3c(c2C#N)CCC(=O)C3)cc1 | 1.33 µM | 5.28 µM
35 | CC(C)c1cc(C(=O)N2Cc3ccc(CN4CCN(C)CC4)cc3C2)c(O)cc1O | 0.0404 µM and 0.0588 µM | 3.72 µM and 0.378 µM
36 | FC(F)(F)c1ccc(-c2cnc(Cl)nc2NC2CCCCCC2)cc1 | 55.8 µM | > 100 µM
37 | O=C1/C(=C/c2ccc(Cl)cc2)COc2ccc(O)cc21 | 2.06 µM | 4.55 µM
38 | COc1cc(/C=N/Nc2ncnc3[nH]ncc23)ccc1O | 9.9 µM | > 25 µM
39 | NC(N)=Nc1ccc(Oc2cccc(NC(N)=Nc3ccc(Cl)c(C(F)(F)F)c3)c2)cn1 | 1.38 µM | 3.13 µM
40 | C=C1C(=O)O[C@H]2[C@H]1CC/C(COC(=O)CCCCCCC(=O)OC/C1=C/CC[C@@]3(C)O[C@H]3[C@H]3OC(=O)C(=C)[C@@H]3CC1)=C\CC[C@@]1(C)O[C@@H]21 | 2.16 µM | 5.44 µM
41 | Cn1cc(-c2nc3c(F)cc4[nH]ncc4c3c3c2CCCC3)c(C(F)(F)F)n1 | 6.44 µM | 33.1 µM
42 | COc1ccc(Nc2nccc(Nc3ccc4[nH]ncc4c3)n2)cc1 | 1.7 µM | 4.55 µM
43 | C=C(C)C(=O)Oc1ccc(N=Nc2ccc(C)cc2)ccc1=O | 2.8 µM | 11.5 µM
